In ChEMBL document CHEMBL2074048, “Identification of a region of the ileal-type sodium/bile acid cotransporter interacting with a competitive bile acid transport inhibitor” (Biochemistry, 2002):

Legend:
[1] = target: T1, Ileal sodium/bile acid cotransporter (Homo sapiens, UniProt Q12908); test: (§1) TP_TRANSPORTER: inhibition of Taurocholate accumulation in ASBT-expressing HEK293 cells; format: functional, cell-based
T1 sequence (Q12908 whole entry): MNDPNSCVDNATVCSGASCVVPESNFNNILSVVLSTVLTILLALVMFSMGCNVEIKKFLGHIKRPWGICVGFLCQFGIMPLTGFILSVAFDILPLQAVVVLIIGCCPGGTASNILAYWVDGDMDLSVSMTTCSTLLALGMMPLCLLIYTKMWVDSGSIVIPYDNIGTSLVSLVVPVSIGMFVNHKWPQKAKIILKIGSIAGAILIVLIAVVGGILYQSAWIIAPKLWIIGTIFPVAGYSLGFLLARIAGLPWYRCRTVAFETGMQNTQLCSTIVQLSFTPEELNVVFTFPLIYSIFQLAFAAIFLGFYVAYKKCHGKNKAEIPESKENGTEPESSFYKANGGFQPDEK

[2] = target: T2, Ileal sodium/bile acid cotransporter (Mus musculus, UniProt P70172); test: as §1; format: functional, cell-based
T2 sequence (P70172 whole entry): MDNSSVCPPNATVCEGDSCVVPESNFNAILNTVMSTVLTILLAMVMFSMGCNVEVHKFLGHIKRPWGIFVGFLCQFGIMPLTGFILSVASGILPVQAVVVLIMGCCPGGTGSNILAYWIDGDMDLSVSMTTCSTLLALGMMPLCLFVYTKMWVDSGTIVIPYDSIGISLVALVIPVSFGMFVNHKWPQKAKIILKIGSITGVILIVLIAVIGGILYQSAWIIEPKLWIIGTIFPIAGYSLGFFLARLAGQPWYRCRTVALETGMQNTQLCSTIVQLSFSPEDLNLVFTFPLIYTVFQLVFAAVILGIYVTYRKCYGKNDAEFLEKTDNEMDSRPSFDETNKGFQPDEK

Ki [1]: 10 µM
Ki [2]: 0.068 µM
Compound: CCCC[C@]1(CC)CS(=O)(=O)c2ccccc2[C@@H](c2ccccc2)N1
